Experimental data: US10450292B2, “Inhibitors of bacterial RNA polymerase: arylpropanoyl, arylpropenoyl, and arylcyclopropanecarboxyl phloroglucinols” (Rutgers, The State University of New Jersey, priority 2015, dated 2019)
In brackets after ≈: the same amount, converted by molar mass. Read-outs that look alike come from different tables or passages of the source.

Columns and labels:
[1] = test system: Enterococcus faecalis ATCC 19433; assay: Inhibition of bacterial growth in culture, spiral gradient endpoint assay (MIC); type: cell-based; settings: Enterococcus faecalis, ATCC 19433 /, 16 h
From the text: J. Microbiol. Meths. […] Int. J. Exp. Clin. Chemother. […] Adv.

[2] = test system: Escherichia coli D21f2tolC; assay: microbe, parasite or virus in culture; settings: 16 h
[3] = test system: Staphylococcus aureus ATCC 12600; assay: Inhibition of bacterial growth in culture, spiral gradient endpoint assay (MIC); settings: Staphylococcus aureus, ATCC12600, 16 h
[4] = read-out: MIC E. faecalis, Mueller-Hinton II agar, 16 h at 37° C.
[5] = read-out: MIC E. coli D21f2tolC, Mueller-Hinton II agar, 16 h at 37° C.
[6] = read-out: MIC S. aureus 12600, Mueller-Hinton II agar, 16 h at 37° C.

Compound | MIC [1, 4] [µg/mL] | MIC [2, 5] [µg/mL] | MIC [3, 6] [µg/mL] | MIC ([1]; read-out: MIC E. faecalis) [µg/mL] | MIC ([2]; read-out: MIC E. coli D21f2tolC) [µg/mL] | MIC ([3]; read-out: MIC S. aureus 12600) [µg/mL]
O=C(C=Cc1ccc(Oc2ccc(Cl)cc2)cc1)c1c(O)cc(O)cc1O (mixture of isomers) [Example 5, (E)-3-(4-(4-chlorophenoxy)phenyl)-1-(2,4,6-trihydroxyphenyl)prop-2-en-1-one] | 6 | 1.6 | 2.6 | – | – | –
CC(Cc1ccc(Cl)cc1)C(=O)c1c(O)cc(O)cc1O (racemic) [Example 30, 3-(4-chlorophenyl)-2-methyl-1-(2,4,6-trihydroxyphenyl)propan-1-one] | 17 (≈ 55.4 µM) | 6.5 (≈ 21.2 µM) | 14 (≈ 45.6 µM) | – | – | –
Cc1ccc(CCC(=O)c2c(O)cc(O)cc2O)s1 [Example 1, 3-(5-methylthiophen-2-yl)-1-(2,4,6-trihydroxyphenyl)propan-1-one] | > 40 | 24 (≈ 86.2 µM) | 32 (≈ 115 µM) | – | – | –
O=C(c1c(O)cc(O)cc1O)C1CC1c1ccc(Cl)cc1 (centres unmarked) [Example 2, (2-(4-chlorophenyl)cyclopropyl)(2,4,6-trihydroxyphenyl)methanone] | 12 (≈ 39.4 µM) | 9.3 (≈ 30.5 µM) | 12 (≈ 39.4 µM) | – | – | –
O=C(CCc1ccc(Oc2cccc(Cl)c2)cc1)c1c(O)cc(O)cc1O [Example 3, 3-(4-(3-chlorophenoxy)phenyl)-1-(2,4,6-trihydroxyphenyl)propan-1-one] | 3.7 (≈ 9.62 µM) | 1.9 (≈ 4.94 µM) | 1.9 (≈ 4.94 µM) | – | – | –
O=C(CCc1ccc(Oc2ccc(Cl)cc2)cc1)c1c(O)cc(O)cc1O [Example 4, 3-(4-(4-chlorophenoxy)phenyl)-1-(2,4,6-trihydroxyphenyl)propan-1-one] | – | – | – | 3.2 (≈ 8.32 µM) | 1.5 (≈ 3.9 µM) | 2.4 (≈ 6.24 µM)
O=C(/C=C/c1ccc(Oc2ccccn2)cc1)c1c(O)cc(O)cc1O [Example 6, (E)-3-(4-(pyridin-2-yloxy)phenyl)-1-(2,4,6-trihydroxyphenyl)prop-2-en-1-one] | > 40 | > 40 | > 40 | – | – | –
O=C(/C=C/c1ccc(OCc2ccccc2)cc1)c1c(O)cc(O)cc1O [Example 7] | > 40 | 16 (≈ 44.2 µM) | > 40 | – | – | –
O=C(/C=C/c1ccc(Oc2ccccc2)cc1)c1c(O)cc(O)cc1O [Example 8, (E)-3-(4-phenoxyphenyl)-1-(2,4,6-trihydroxyphenyl)prop-2-en-1-one] | 31 (≈ 89 µM) | 3.8 (≈ 10.9 µM) | 6.5 (≈ 18.7 µM) | – | – | –
O=C(/C=C/c1ccc(C(F)(F)F)cc1C(F)(F)F)c1c(O)cc(O)cc1O [Example 9, (E)-3-(2,4-bis(trifluoromethyl)phenyl)-1-(2,4,6-trihydroxyphenyl)prop-2-en-1-one] | 16 (≈ 40.8 µM) | 8 (≈ 20.4 µM) | 13 (≈ 33.1 µM) | – | – | –
O=C(CCc1ccc(Oc2ccc(F)cc2)cc1)c1c(O)cc(O)cc1O [Example 10, 3-(4-(4-fluorophenoxy)phenyl)-1-(2,4,6-trihydroxyphenyl)propan-1-one] | 5.1 (≈ 13.8 µM) | 1.5 (≈ 4.07 µM) | 3.1 (≈ 8.42 µM) | – | – | –
O=C(/C=C/c1ccc(Oc2ccc(F)cc2)cc1)c1c(O)cc(O)cc1O [Example 11, (E)-3-(4-(4-fluorophenoxy)phenyl)-1-(2,4,6-trihydroxyphenyl)prop-2-en-1-one] | > 40 | 5.9 (≈ 16.1 µM) | 17 (≈ 46.4 µM) | – | – | –
O=C(c1c(O)cc(O)cc1O)C1CC1c1ccc(Oc2ccc(F)cc2)cc1 (centres unmarked) [Example 12, (2-(4-(4-fluorophenoxy)phenyl)cyclopropyl)(2,4,6-trihydroxyphenyl) methanone] | 4 (≈ 10.5 µM) | 1.5 (≈ 3.94 µM) | 3.1 (≈ 8.15 µM) | – | – | –
O=C(c1c(O)cc(O)cc1O)C1CC1c1ccc(Oc2ccc(Cl)cc2)cc1 (centres unmarked) [Example 13, (2-(4-(4-chlorophenoxy)phenyl)cyclopropyl)(2,4,6-trihydroxyphenyl)methanone] | 4.8 (≈ 12.1 µM) | 2.1 (≈ 5.29 µM) | 4.3 (≈ 10.8 µM) | – | – | –
O=C(/C=C/c1ccc(C(F)(F)F)cc1)c1c(O)cc(O)cc1O [Example 14, (E)-3-(4-(trifluoromethyl)phenyl)-1-(2,4,6-trihydroxyphenyl)prop-2-en-1-one] | 32 (≈ 98.7 µM) | 20 (≈ 61.7 µM) | 32 (≈ 98.7 µM) | – | – | –
O=C(/C=C/c1ccc(Oc2ccccc2)cc1C(F)(F)F)c1c(O)cc(O)cc1O [Example 15, (E)-3-(4-phenoxy-2-(trifluoromethyl)phenyl)-1-(2,4,6-trihydroxyphenyl)prop-2-en-1-one] | 3.6 (≈ 8.65 µM) | 1.8 (≈ 4.32 µM) | 3.2 (≈ 7.69 µM) | – | – | –
O=C(CCc1ccc(Oc2ccccc2)cc1C(F)(F)F)c1c(O)cc(O)cc1O [Example 16, 3-(4-phenoxy-2-(trifluoromethyl)phenyl)-1-(2,4,6-trihydroxyphenyl)propan-1-one] | 1.8 (≈ 4.3 µM) | 1.3 (≈ 3.11 µM) | 1.1 (≈ 2.63 µM) | – | – | –
O=C(/C=C/c1ccc(Oc2ccc(Cl)cc2)cc1C(F)(F)F)c1c(O)cc(O)cc1O [Example 17, (E)-3-(4-(4-chlorophenoxy)-2-(trifluoromethyl)phenyl)-1-(2,4,6-trihydroxyphenyl)prop-2-en-1-one] | 1.9 (≈ 4.21 µM) | 2.5 (≈ 5.55 µM) | 1.8 (≈ 3.99 µM) | – | – | –
Cc1cc(Oc2ccc(Cl)cc2)ccc1/C=C/C(=O)c1c(O)cc(O)cc1O [Example 18, (E)-3-(4-(4-chlorophenoxy)-2-methylphenyl)-1-(2,4,6-trihydroxyphenyl)prop-2-en-1-one] | 2.4 (≈ 6.05 µM) | 1.1 (≈ 2.77 µM) | 1.3 (≈ 3.28 µM) | – | – | –
Cc1ccc(C2CC2C(=O)c2c(O)cc(O)cc2O)cc1 (centres unmarked) [Example 19, (2-(p-tolyl)cyclopropyl)(2,4,6-trihydroxyphenyl)methanone] | > 40 | 13 (≈ 45.7 µM) | 20 (≈ 70.3 µM) | – | – | –
Cc1ccc(C2CC2C(=O)c2c(O)cc(O)cc2O)c(C)c1 (centres unmarked) [Example 20, (2-(2,4-dimethylphenyl)cyclopropyl)(2,4,6-trihydroxyphenyl)methanone] | 2.4 (≈ 8.04 µM) | 1.7 (≈ 5.7 µM) | 2.1 (≈ 7.04 µM) | – | – | –
CCOc1ccc(C2CC2C(=O)c2c(O)cc(O)cc2O)cc1 (centres unmarked) [Example 21, (2-(4-ethoxyphenyl)cyclopropyl)(2,4,6-trihydroxyphenyl)methanone] | > 40 | 20 (≈ 63.6 µM) | 16 (≈ 50.9 µM) | – | – | –
O=C(c1c(O)cc(O)cc1O)C1CC1c1ccc(Oc2ccccc2)cc1 (centres unmarked) [Example 22, (2-(4-phenoxyphenyl)cyclopropyl)(2,4,6-trihydroxyphenyl) methanone] | 1.3 (≈ 3.59 µM) | 0.49 (≈ 1.35 µM) | 1 (≈ 2.76 µM) | – | – | –
O=C(CCc1ccc(Oc2ccc(Cl)cc2)cc1C(F)(F)F)c1c(O)cc(O)cc1O [Example 23, 3-(4-(4-chlorophenoxy)-2-(trifluoromethyl)phenyl)-1-(2,4,6-trihydroxyphenyl)propan-1-one] | 1.7 (≈ 3.75 µM) | 1.7 (≈ 3.75 µM) | 1.1 (≈ 2.43 µM) | – | – | –
Cc1cc(Oc2ccc(Cl)cc2)ccc1CCC(=O)c1c(O)cc(O)cc1O [Example 24, 3-(4-(4-chlorophenoxy)-2-methylphenyl)-1-(2,4,6-trihydroxyphenyl)propan-1-one] | 3 (≈ 7.52 µM) | 1.1 (≈ 2.76 µM) | 1.8 (≈ 4.51 µM) | – | – | –
O=C(c1c(O)cc(O)cc1O)C1CC1c1ccc(Oc2ccc(Cl)cc2)cc1C(F)(F)F (centres unmarked) [Example 25, (2-(4-(4-chlorophenoxy)-2-(trifluoromethyl)phenyl)cyclopropyl)(2,4,6-trihydroxyphenyl)methanone] | 1.7 (≈ 3.66 µM) | 1.5 (≈ 3.23 µM) | 1.7 (≈ 3.66 µM) | – | – | –
CCCc1c(O)cc(O)c(C(=O)/C=C/c2ccc(Oc3ccc(F)cc3)cc2)c1O [Example 67, (E)-3-(4-(4-fluorophenoxy)phenyl)-1-(2,4,6-trihydroxy-3-propylphenyl)prop-2-en-1-one] | 0.55 (≈ 1.35 µM) | 0.72 (≈ 1.76 µM) | – | – | – | –
